Measured values as given in US4178442A, “Novel cinnamoyles piperazines and homopiperazines, the method of preparing them and their application in therapeutics” (Delalande S. A., priority 1977, dated 1979).
Counter-ions that a name gives are not always drawn. Like-named read-outs stand apart in the source and are kept apart here.

Tests used:
[1] = in vivo; settings: iv, read-out: Toxicity: LD50
From the text: *LD50 or percentage of mortality which is given between brackets

[2] = test system: anaesthetized dog; assay: Activity on the cerebral circulation, anaesthetized dog; assay type: in vivo; settings: for change in vivo at 2.5 mg/kg / change in vivo at 5 mg/kg / change in vivo at 2 mg/kg: Canis lupus familiaris, iv; for Increase of the extraction of cerebral oxygen: (A-V)/A
Protocol: The activity on the cerebral circulation was tested on an anaesthetized dog (sodium pentobarbital 30 mg/kg/i.v.). The vertebral artery flow was measured by means of an electromagnetic perivascular or ultrasonic Doppler effect probe. The intracerebral vascular resistance was estimated by the back pressure of the internal carotid artery. […] The increase in the extraction of cerebral oxygen was estimated by the following equation:(A-V)/A in which: A represents the volume of oxygen in the arterial blood (% volume) measured by hemoreflectometry (KIPP and ZONEN's apparatus) and quantity determination of the haemoglobin (DRABKIN's method). V represents the volume of oxygen in the cerebral venous blood (internal maxillary vein). […] It should be noted that the compounds tested were injected intravenously (rapid injection).

[3] = test system: anaesthetized dog; assay: Antiangorous activity on anaesthetized dog: consumption of oxygen in the left ventricule and cardiac effort (KATZ's index); assay type: in vivo; settings: 2.5 mg/kg i.v. slow perfusion; for inhibition in vivo at 2.5 mg/kg: Canis lupus familiaris, iv
Procedure, shortened: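 Dogs anaesthetized with sodium pentobarbital 30 mg/kg i.v.; compounds given by slow i.v. perfusion. Left ventricular O2 consumption = coronary venous flow (Morawitz cannula in coronary sinus) × arteriovenous O2 difference; cardiac effort (Katz index) = mean arterial pressure × heart rate from D2 ECG.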

[4] = test system: anaesthetized dog; assay: Activity on the peripheral circulation, anaesthetized dog; assay type: in vivo; settings: for change in vivo at 5 mg/kg / Average arterial pressure: in time / Femoral artery flow: in time / change in vivo at 10 mg/kg: dog
Protocol: The activity on the peripheral circulation was studied on an anaesthetized dog (sodium pentobarbital 30 mg/kg/i.v.). The femoral artery flow was measured by means of an electromagnetic or ultrasonic perivascular Doppler effect probe.

[5] = dog, 2,5 mg/kg i.v. rapid injection, read-out: Internal carotid artery back pressure
[6] = dog, 2,5 mg/kg i.v. rapid injection, read-out: Systemic average arterial pressure
[7] = dog, 2,5 mg/kg i.v. rapid injection
[8] = read-out: Diminution in consumption of O2
[9] = read-out: Diminution in the cardiac effort (IK)
[10] = dog, 5 mg/kg i.v. rapid injection, read-out: Internal carotid artery back pressure
[11] = dog, 5 mg/kg i.v. rapid injection, read-out: Vertebral artery flow
[12] = dog, 5 mg/kg i.v. rapid injection
[13] = Canis lupus familiaris, iv, 5 mg/kg i.v. slow perfusion, read-out: Average arterial pressure
[14] = Canis lupus familiaris, iv, 5 mg/kg i.v. slow perfusion, read-out: Femoral artery flow
[15] = dog, 2 mg/kg i.v. rapid injection

COc1cc(/C=C/C(=O)N2CCN(CC(O)CN(C)c3ccccc3)CC2)cc(OC)c1OC (stereo not shown) [770 495, 1-(3-N-methylanilino-2-hydroxy)propyl-4-(3,4,5-trimethoxycinnamoyl)piperazine, hydrated oxalate]
LD50 [1]: 175 mg/kg
change in vivo at 2.5 mg/kg [2, 5]: -17%
change in vivo at 2.5 mg/kg [2, 6]: -20%
Internal carotid artery back pressure: in time [2, 7]: 60 min
Systemic average arterial pressure: in time [2, 7]: 20 min
Vertebral artery flow: in time [2, 7]: 60 min
Increase of the extraction of cerebral oxygen [2, 7]: +188%
Diminution in consumption of O2: in time [3]: 45 min
Diminution in the cardiac effort (IK): in time [3]: 30 min
inhibition in vivo at 2.5 mg/kg [3, 8]: 74%
inhibition in vivo at 2.5 mg/kg [3, 9]: 43%

COc1cc(/C=C/C(=O)N2CCN(CC(O)COc3cccc(OC)c3OC)CC2)cc(OC)c1OC (stereo not shown) [760 393]
LD50 [1]: 319 mg/kg
change in vivo at 5 mg/kg [2, 10]: -62%
change in vivo at 5 mg/kg ([2]; dog, 5 mg/kg i.v. rapid injection, read-out: Systemic average arterial pressure): -33%
change in vivo at 5 mg/kg [2, 11]: 150%
Systemic average arterial pressure: in time [2, 12]: 30 min
Vertebral artery flow: in time [2, 12]: < 2 min
Diminution in consumption of O2: in time [3]: 15 min
Diminution in the cardiac effort (IK): in time [3]: 15 min
inhibition in vivo at 2.5 mg/kg [3, 8]: 47%
inhibition in vivo at 2.5 mg/kg [3, 9]: 5%

COc1cc(/C=C/C(=O)N2CCN(CC(O)COc3cccc(Cl)c3)CC2)cc(OC)c1OC (stereo not shown) [760 504]
change in vivo at 5 mg/kg [4, 13]: -23%
change in vivo at 5 mg/kg [4, 14]: 49%
Average arterial pressure: in time ([4]; 5 mg/kg i.v. slow perfusion): 10 min
Femoral artery flow: in time ([4]; 5 mg/kg i.v. slow perfusion): 15 min

C(=C\c1ccccc1)/CN1CCN(C(c2ccccc2)c2ccccc2)CC1 [Cinnarizine, cinnarizine, reference compound]
change in vivo at 5 mg/kg [4, 14]: 100%
Femoral artery flow: in time ([4]; 5 mg/kg i.v. slow perfusion): 30 min
change in vivo at 5 mg/kg [2, 10]: -25%
change in vivo at 5 mg/kg [2, 11]: 130%
Internal carotid artery back pressure: in time [2, 12]: 30 min
Vertebral artery flow: in time [2, 12]: 30 min
Increase of the extraction of cerebral oxygen [2, 12]: 0%

COc1ccccc1OCC(O)CN1CCN(C(=O)/C=C/c2cc(OC)c(OC)c(OC)c2)CC1 (stereo not shown) [760 392]
change in vivo at 10 mg/kg ([4]; Canis lupus familiaris, iv, 10 mg/kg i.v. slow perfusion, read-out: Average arterial pressure): -28%
change in vivo at 10 mg/kg ([4]; Canis lupus familiaris, iv, 10 mg/kg i.v. slow perfusion, read-out: Femoral artery flow): 56%
Average arterial pressure: in time ([4]; 10 mg/kg i.v. slow perfusion): 38 min
Femoral artery flow: in time ([4]; 10 mg/kg i.v. slow perfusion): 45 min
change in vivo at 2 mg/kg ([2]; dog, 2 mg/kg i.v. rapid injection, read-out: Internal carotid artery back pressure): -79%
change in vivo at 2 mg/kg ([2]; dog, 2 mg/kg i.v. rapid injection, read-out: Systemic average arterial pressure): -39%
change in vivo at 2 mg/kg ([2]; dog, 2 mg/kg i.v. rapid injection, read-out: Vertebral artery flow): 186%
Internal carotid artery back pressure: in time [2, 15]: > 30 min
Systemic average arterial pressure: in time [2, 15]: 30 min
Vertebral artery flow: in time [2, 15]: < 30 min
Diminution in consumption of O2: in time [3]: 30 min
Diminution in the cardiac effort (IK): in time [3]: 30 min
inhibition in vivo at 2.5 mg/kg [3, 8]: 31%
inhibition in vivo at 2.5 mg/kg [3, 9]: 11%

COc1cc(/C=C/C(=O)N2CCN(CC(O)COc3ccccc3C)CC2)cc(OC)c1OC (stereo not shown) [760 502]
change in vivo at 5 mg/kg [4, 13]: -22%
change in vivo at 5 mg/kg [4, 14]: 190%
Average arterial pressure: in time ([4]; 5 mg/kg i.v. slow perfusion): 15 min
Femoral artery flow: in time ([4]; 5 mg/kg i.v. slow perfusion): 35 min

COc1ccc(Cc2nccc3cc(OC)c(OC)cc23)cc1OC [Papaverine, papaverine, reference compound]
change in vivo at 2 mg/kg ([4]; Canis lupus familiaris, iv, read-out: Femoral artery flow): 100%
Femoral artery flow: in time ([4]; 2 mg/kg i.v. slow perfusion): 1 min
change in vivo at 2.5 mg/kg ([2]; read-out: Internal carotid artery back pressure): -45%
change in vivo at 2.5 mg/kg ([2]; read-out: Vertebral artery flow): 100%
Internal carotid artery back pressure: in time [2, 7]: 5 min
Vertebral artery flow: in time [2, 7]: 6 min
Increase of the extraction of cerebral oxygen [2, 7]: 0%

COc1cc(/C=C/C(=O)N2CCN(CC(O)COc3cccc(C(C)=O)c3)CC2)cc(OC)c1OC (stereo not shown) [770 458]
LD50 [1]: 250 mg/kg
change in vivo at 2.5 mg/kg [2, 5]: -11%
change in vivo at 2.5 mg/kg [2, 6]: -10%
Internal carotid artery back pressure: in time [2, 7]: 15 min
Systemic average arterial pressure: in time [2, 7]: 15 min
Increase of the extraction of cerebral oxygen [2, 7]: +35%
Diminution in consumption of O2: in time [3]: 23 min
Diminution in the cardiac effort (IK): in time [3]: 15 min
inhibition in vivo at 2.5 mg/kg [3, 8]: 72%
inhibition in vivo at 2.5 mg/kg [3, 9]: 25%
